# Experimental data as given in paper PMC2248166, “Quantitative peptide binding motifs for 19 human and mouse MHC class I molecules derived using positional scanning combinatorial peptide libraries” (Immunome Research, 2008).
# Columns and labels:
# [1] = target: H-2 D^d (Mus musculus, UniProt P01900); assay type: binding
# [2] = target: HLA B*5801 (Homo sapiens, UniProt P01889, A329T/C349S/D201E/D98Y/E176V/E187L/E204Q/E69T/G107R/I218V/I90N/K202T/L105A/L119I/N104I/N87E/Q89R/Q94S/R106L/R155S/R180L/R86G/S101N/S121R/S35A/S48A/T118I/V127L/V306I/V36M/Y140S/Y91M); assay type: binding
# [3] = target: HLA B*2705 (Homo sapiens, UniProt P01889, D138H/D201E/E176V/E204Q/G107R/H137Y/K202T/N104T/N87E/Q56L/Q94K/R106L/R155S/R180L/S101D/S121N/S48T/Y140D/Y33H/Y91C); assay type: binding; conditions: positional scanning combinatorial 9-mer library; normalized to 1.0 for the best residue at each position
# [4] = target: H-2 D^b (Mus musculus, UniProt P01899); assay type: binding
# Chain of H-2 D^b (P01887 21-119): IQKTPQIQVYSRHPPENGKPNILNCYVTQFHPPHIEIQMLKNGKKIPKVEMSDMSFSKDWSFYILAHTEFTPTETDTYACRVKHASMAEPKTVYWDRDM
# Chain of H-2 D^b (P01899 25-362): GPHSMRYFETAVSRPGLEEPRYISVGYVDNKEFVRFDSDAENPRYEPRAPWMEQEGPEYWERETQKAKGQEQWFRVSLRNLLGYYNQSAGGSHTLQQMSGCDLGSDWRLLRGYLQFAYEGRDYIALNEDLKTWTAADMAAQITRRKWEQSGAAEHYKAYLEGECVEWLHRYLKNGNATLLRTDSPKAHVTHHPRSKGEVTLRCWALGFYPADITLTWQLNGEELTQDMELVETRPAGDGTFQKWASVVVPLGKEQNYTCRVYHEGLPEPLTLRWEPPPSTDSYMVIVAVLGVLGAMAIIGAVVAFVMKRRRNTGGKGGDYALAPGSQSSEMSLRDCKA
# [5] = target: HLA B*0801 (Homo sapiens, UniProt P01889, A93T/A95T/D138N/E176V/E187T/K202T/Q94N/R180D/S35A/V36M/Y33D/Y91F); test: biochemical; assay type: binding
# [6] = target: HLA B*5101 (Homo sapiens, UniProt P01889, A329T/A93T/A95T/C349S/D138N/D201E/D98Y/E187L/E204Q/E69T/G107R/I218V/K202T/L105A/L119W/N104I/Q94N/R106L/R155S/R180L/S101N/S121T/S35A/S48A/V306I/V36M/Y195H/Y91F); assay type: binding
# [7] = target: HLA A*3001 (Homo sapiens, UniProt P04439, D140H/D185E/E176W/F33S/G80R/H175R/K168Q/R138E/R41S); test: biochemical; assay type: binding
# [8] = target: HLA B*3501 (Homo sapiens, UniProt P01889, A329T/A93T/A95T/C349S/D201E/D98Y/E176V/E187L/E204Q/E69T/I218V/K202T/L119I/Q94N/R155S/R180L/S121R/S35A/S48A/T118I/V127L/V306I/V36M/Y140S/Y91F); assay type: binding
# [9] = target: HLA B*5401 (Homo sapiens, UniProt P01889, A329T/C349S/D138N/D201E/E176V/E187T/E204Q/E69G/I76V/K202T/L119W/R155S/R180L/S121T/S35A/S48A/V127L/V306I/V36M/Y140L); assay type: binding
# [10] = target: HLA A*0201 (Homo sapiens, UniProt P04439, D140Y/D185E/D98H/E176V/E277Q/G131W/G231S/I119V/I121R/I166T/I218V/L300P/L318F/N151K/N90K/P208A/P217A/Q86G/Q94H/R138H/R169H/T345S); conditions: positional scanning combinatorial 9-mer library; normalized to 1.0 for the best residue at each position
# [11] = target: HLA A*6802 (Homo sapiens, UniProt P04439, A269V/D140Y/D185E/E176V/E277Q/E87N/F33Y/G231S/I121R/I166T/I218V/L180W/L300P/L318F/N151K/P208A/P217A/Q86R/R138H/R169H/S129P/T345S/V36M); assay type: binding
# [12] = target: HLA B*1503 (Homo sapiens, UniProt P01889, A329T/A93T/A95T/C349S/D201E/D98Y/E187L/E204Q/K202T/N87E/Q94N/R155S/R180L/S121R/S35A/V306I/V36M/Y140S/Y91S); test: biochemical; assay type: binding
# [13] = target: HLA B*1501 (Homo sapiens, UniProt P01889, A329T/A93T/A95T/C349S/D201E/D98Y/E187L/E204Q/E69M/E70A/K202T/N87E/Q94N/R155S/R180W/S121R/S35A/S48A/V306I/V36M/Y140S/Y91S); test: biochemical; assay type: binding
# [14] = target: H-2 K^k (Mus musculus, UniProt P04223); assay type: binding
# Chain of H-2 K^k (P01887 21-119): as the sequence (P01887 21-119) above
# Chain of H-2 K^k (P04223 22-369): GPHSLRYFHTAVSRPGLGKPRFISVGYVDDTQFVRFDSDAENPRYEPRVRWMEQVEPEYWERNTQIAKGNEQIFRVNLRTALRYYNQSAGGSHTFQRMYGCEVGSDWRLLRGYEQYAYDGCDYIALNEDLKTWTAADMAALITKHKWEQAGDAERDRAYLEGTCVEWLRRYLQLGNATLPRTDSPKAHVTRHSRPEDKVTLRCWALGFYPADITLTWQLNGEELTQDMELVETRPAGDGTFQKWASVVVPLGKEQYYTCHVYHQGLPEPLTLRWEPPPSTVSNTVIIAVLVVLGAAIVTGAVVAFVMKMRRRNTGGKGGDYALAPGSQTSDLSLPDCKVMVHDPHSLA
# [15] = target: HLA B*5802 (Homo sapiens, UniProt P01889, A329T/C349S/D201E/D98Y/E176V/E187L/E204Q/E69T/G107R/I218V/I90N/K202T/L105A/N104I/N87E/Q89R/Q94S/R106L/R155S/R180L/R86G/S101N/S121W/S35A/S48A/V127L/V306I/V36M/Y140S/Y91M); assay type: binding
# [16] = target: HLA B*0702 (Homo sapiens, UniProt P01889); assay type: binding; conditions: positional scanning combinatorial 9-mer library; normalized to 1.0 for the best residue at each position
# [17] = target: HLA B*5301 (Homo sapiens, UniProt P01889, A329T/A93T/A95T/C349S/D201E/D98Y/E176V/E187L/E204Q/E69T/G107R/I218V/K202T/L105A/L119I/N104I/Q94N/R106L/R155S/R180L/S101N/S121R/S35A/S48A/T118I/V127L/V306I/V36M/Y140S/Y91F); assay type: binding
# [18] = target: HLA A*3201 (Homo sapiens, UniProt P04439, A270S/D101S/D185E/E176V/E277Q/F133L/G103R/G107R/G231S/H175R/I121M/I218V/I322F/K168Q/L105A/L300P/L318F/M331R/P208A/P217A/Q94H/R106L/R138Q/S129P/T104I/T323A/T345S/V100E/V321M/V358M); test: biochemical; assay type: binding
# Chain of H-2 D^d (P01900 whole entry, looked up): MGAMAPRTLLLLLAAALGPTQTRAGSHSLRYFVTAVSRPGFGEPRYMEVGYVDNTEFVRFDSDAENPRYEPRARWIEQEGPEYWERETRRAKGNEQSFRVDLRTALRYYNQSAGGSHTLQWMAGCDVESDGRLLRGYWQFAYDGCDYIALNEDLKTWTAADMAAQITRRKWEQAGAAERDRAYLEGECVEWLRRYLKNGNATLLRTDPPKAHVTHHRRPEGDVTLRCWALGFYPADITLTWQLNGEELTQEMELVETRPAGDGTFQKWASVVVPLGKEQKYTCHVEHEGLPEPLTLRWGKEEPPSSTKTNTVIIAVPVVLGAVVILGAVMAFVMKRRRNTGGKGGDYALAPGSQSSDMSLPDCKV
Sequence,"Normalized average relative binding affinity (ARB), H-2 Dd [1]","Normalized average relative binding affinity (ARB), HLA B*5801 [2]","Normalized average relative binding affinity (ARB), HLA B*2705 [3]","Normalized average relative binding affinity (ARB), H-2 Db [4]","Normalized average relative binding affinity (ARB), HLA B*0801 [5]","Normalized average relative binding affinity (ARB), HLA B*5101 [6]","Normalized average relative binding affinity (ARB), HLA A*3001 [7]","Normalized average relative binding affinity (ARB), HLA B*3501 [8]","Normalized average relative binding affinity (ARB), HLA B*5401 [9]","Normalized average relative binding affinity (ARB), HLA A*0201 [10]","Normalized average relative binding affinity (ARB), HLA A*6802 [11]","Normalized average relative binding affinity (ARB), HLA B*1503 [12]","Normalized average relative binding affinity (ARB), HLA B*1501 [13]","Normalized average relative binding affinity (ARB), H-2 Kk [14]","Normalized average relative binding affinity (ARB), HLA B*5802 [15]","Normalized average relative binding affinity (ARB), HLA B*0702 [16]","Normalized average relative binding affinity (ARB), HLA B*5301 [17]","Normalized average relative binding affinity (ARB), HLA A*3201 [18]"
XXPXXXXXX [3064.0053],1.0,0.042,0.027,0.38,0.072,0.42,0.0036,0.089,0.013,0.056,0.043,0.058,0.32,0.035,0.047,0.014,0.010,0.13
XXQXXXXXX [3064.0054],0.012,0.15,0.12,0.098,0.062,0.20,0.014,0.27,0.055,0.20,0.12,0.062,0.30,0.42,0.098,0.19,0.13,0.45
XXRXXXXXX [3064.0055],0.0031,0.058,0.16,0.023,1.0,0.33,1.0,0.074,0.062,0.019,0.018,0.25,0.69,0.19,0.38,0.63,0.029,0.19
XXSXXXXXX [3064.0056],0.0061,0.33,0.27,0.084,0.057,0.16,0.040,0.11,0.014,0.17,0.50,0.41,0.41,0.43,0.066,0.093,0.15,0.29
